Columns and labels:
[1] = molecular target: JAK1 (Homo sapiens (Human), UniProt P23458); assay: Jak Biochemical HTRF Assay, JAK1; conditions: HTRF biochemical assay, GST-tagged catalytic domain; top concentration tested […]; read-out: JAK1 IC50
Source text: (§1) Jak Biochemical HTRF Assay Protocol
(§2) Subsequent reagent additions employed an Agilent Bravo.

[2] = molecular target: JAK2 (Homo sapiens (Human), UniProt O60674); assay: Jak Biochemical HTRF Assay, JAK2; conditions: HTRF biochemical assay, GST-tagged catalytic domain; top concentration tested […]
Source text: as §1, §2

Chain of JAK2 (O60674 849-1124): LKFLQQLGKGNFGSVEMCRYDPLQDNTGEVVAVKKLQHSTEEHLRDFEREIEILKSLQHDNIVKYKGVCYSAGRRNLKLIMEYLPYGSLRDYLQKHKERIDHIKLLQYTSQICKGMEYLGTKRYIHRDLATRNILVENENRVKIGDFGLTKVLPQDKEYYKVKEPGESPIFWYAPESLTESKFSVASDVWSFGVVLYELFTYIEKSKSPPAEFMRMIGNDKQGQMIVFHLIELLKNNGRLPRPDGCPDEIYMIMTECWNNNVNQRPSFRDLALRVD
Chain of JAK1 (P23458 875-1153): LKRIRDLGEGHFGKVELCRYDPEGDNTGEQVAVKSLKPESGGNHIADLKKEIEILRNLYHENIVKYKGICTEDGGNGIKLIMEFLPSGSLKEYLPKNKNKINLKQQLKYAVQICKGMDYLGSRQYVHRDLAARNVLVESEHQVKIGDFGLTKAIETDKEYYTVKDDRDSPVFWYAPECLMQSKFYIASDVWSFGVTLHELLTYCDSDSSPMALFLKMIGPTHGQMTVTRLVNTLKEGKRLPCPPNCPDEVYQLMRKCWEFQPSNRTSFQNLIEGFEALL

Structure (SMILES)	IC50 [1] [nM]	IC50 [2] [nM]
CC(C)(C)OC(=O)N1CCC(C(C#N)C2CC2)(n2cc(C(N)=O)c(Nc3ccc(F)cc3)n2)CC1 (stereo not drawn) [Example 5-2, tert-butyl 4-{4-carbamoyl-3-[(4-fluorophenyl)amino]-1H-pyrazol-1-yl}-4-[cyano(cyclopropyl)methyl] piperidine-1-carboxylate]	271	738
N#CCC1(n2cc(C(N)=O)c(Nc3ccc(F)cc3)n2)CCC2(CC1)OCCO2 [Example 6-6, 1-[8-(cyanomethyl)-1,4-dioxaspiro[4.5]dec-8-yl]-3-[(4-fluorophenyl)amino]-1H-pyrazole-4-carboxamide]	7	48
CS(=O)(=O)c1ccc(Nc2nn(C3(CC#N)CCC4(CC3)OCCO4)cc2C(N)=O)cc1 [Example 6-7, 1-[8-(cyanomethyl)-1,4-dioxaspiro[4.5]dec-8-yl]-3-{[4-(methylsulfonyl)phenyl]amino}-1H-pyrazole-4-carboxamide]	19	206
N#CCC1(n2cc(C(N)=O)c(Nc3ccc(F)cc3)n2)CCS(=O)(=O)CC1 [Example 8, 1-(4-(Cyanomethyl)-1,1-dioxidotetrahydro-2H-thiopyran-4-yl)-3-((4-fluorophenyl)amino)-1H-pyrazole-4-carboxamide]	50	813
CC(C)(C)OC(=O)N1CCC(CC#N)(n2cc(C(N)=O)c(Nc3ccnc(F)c3)n2)CC1 [Example 9-1, tert-Butyl 4-{4-carbamoyl-3-[(2-fluoropyridin-4-yl)amino]-1H-pyrazol-1-yl}-4-(cyanomethyl)piperidine-1-carboxylate]	0.2	5
COC(=O)c1ccc(Nc2nn(C3(CC#N)CCN(C(=O)OC(C)(C)C)CC3)cc2C(N)=O)cc1 [Example 9-2, tert-butyl 4-(4-carbamoyl-3-{[4-(methoxycarbonyl)phenyl]amino}-1H-pyrazol-1-yl)-4-(cyanomethyl)piperidine-1-carboxylate]	0.3	9
CC(C)(C)OC(=O)N1CCC(CC#N)(n2cc(C(N)=O)c(Nc3ccc(F)cc3)n2)CC1 [Example 9-3, tert-butyl 4-{4-carbamoyl-3-[(4-fluorophenyl)amino]-1H-pyrazol-1-yl}-4-(cyanomethyl)piperidine-1-carboxylate]	0.8	21
CNC(=O)c1ccc(Nc2nn(C3(CC#N)CCN(C(=O)OC(C)(C)C)CC3)cc2C(N)=O)cc1 [Example 9-4, tert-Butyl 4-[4-(aminocarbonyl)-3-({4-[(methylamino)carbonyl]phenyl}amino)-1H-pyrazol-1-yl]-4-(cyanomethyl)piperidine-1-carboxylate]	0.1	2
CC(C)(C)OC(=O)N1CCC(CC#N)(n2cc(C(N)=O)c(Nc3ccc(C#N)cc3)n2)CC1 [Example 9-5, tert-butyl 4-{4-carbamoyl-3-[(4-cyanophenyl)amino]-1H-pyrazol-1-yl}-4-(cyanomethyl)piperidine-1-carboxylate]	0.2	6
CC(C)(C)OC(=O)N1CCC(CC#N)(n2cc(C(N)=O)c(Nc3ccc(C(C)(C)O)nc3)n2)CC1 [Example 9-6, tert-butyl 4-(4-carbamoyl-3-(6-(2-hydroxypropan-2-yl)pyridin-3-ylamino)-1H-pyrazol-1-yl)-4-(cyanomethyl)piperidine-1-carboxylate]	0.8	3
CC(O)c1ccc(Nc2nn(C3(CC#N)CCN(C(=O)OC(C)(C)C)CC3)cc2C(N)=O)cn1 (stereo not drawn) [Example 9-7, tert-butyl 4-(4-carbamoyl-3-(6-(1-hydroxyethyl)pyridin-3-ylamino)-1H-pyrazol-1-yl)-4-(cyanomethyl)piperidine-1-carboxylate]	0.5	2
CC(C)(C)OC(=O)N1CCC(CC#N)(n2cc(C(N)=O)c(Nc3ccc(C(C)(C)O)cc3)n2)CC1 [Example 9-8, tert-butyl 4-(4-carbamoyl-3-(4-(2-hydroxypropan-2-yl)phenylamino)-1H-pyrazol-1-yl)-4-(cyanomethyl)piperidine-1-carboxylate]	0.3	3
CC(O)c1ccc(Nc2nn(C3(CC#N)CCN(C(=O)OC(C)(C)C)CC3)cc2C(N)=O)cc1 (stereo not drawn) [Example 9-9, tert-butyl 4-(4-carbamoyl-3-(4-(1-hydroxyethyl)phenylamino)-1H-pyrazol-1-yl)-4-(cyanomethyl)piperidine-1-carboxylate]	0.4	6
CC(=O)c1ccc(Nc2nn(C3(CC#N)CCN(C(=O)OC(C)(C)C)CC3)cc2C(N)=O)cc1 [Example 9-10, tert-butyl 4-(3-(4-acetylphenylamino)-4-carbamoyl-1H-pyrazol-1-yl)-4-(cyanomethyl)piperidine-1-carboxylate]	0.2	3
CC(C)(C)OC(=O)N1CCC(CC#N)(n2cc(C(N)=O)c(Nc3ccc(C(=O)C(F)(F)F)cc3)n2)CC1 [Example 9-11, tert-butyl 4-(4-carbamoyl-3-{[4-(trifluoroacetyl)phenyl]amino}-1H-pyrazol-1-yl)-4-(cyanomethyl)piperidine-1-carboxylate]	0.2	3
CC(C)(C)OC(=O)N1CCC(CC#N)(n2cc(C(N)=O)c(Nc3ccc(C#N)nc3)n2)CC1 [Example 9-12, tert-butyl 4-{4-carbamoyl-3-[(6-cyanopyridin-3-yl)amino]-1H-pyrazol-1-yl}-4-(cyanomethyl)piperidine-1-carboxylate]	0.5	6
Cn1ccc(-c2ccc(Nc3nn(C4(CC#N)CCN(C(=O)OC(C)(C)C)CC4)cc3C(N)=O)cc2)n1 [Example 9-13, tert-butyl 4-(4-carbamoyl-3-{[4-(1-methyl-1H-pyrazol-3-yl)phenyl]amino}-1H-pyrazol-1-yl)-4-(cyanomethyl)piperidine-1-carboxylate]	3	138
CC(C)(C)OC(=O)N1CCC(CC#N)(n2cc(C(N)=O)c(Nc3ccnc(N)c3)n2)CC1 [Example 9-14, tert-butyl 4-{3-[(2-aminopyridin-4-yl)amino]-4-carbamoyl-1H-pyrazol-1-yl}-4-(cyanomethyl)piperidine-1-carboxylate]	0.2	3
CC(C)(C)OC(=O)N1CCC(CC#N)(n2cc(C(N)=O)c(Nc3ccc(S(=O)(=O)C(F)F)cc3)n2)CC1 [Example 9-16, tert-butyl 4-[4-carbamoyl-3-({4-[(difluoromethyl)sulfonyl]phenyl}amino)-1H-pyrazol-1-yl]-4-(cyanomethyl)piperidine-1-carboxylate]	0.09	0.6
Cc1cc(Nc2nn(C3(CC#N)CCN(C(=O)OC(C)(C)C)CC3)cc2C(N)=O)ccn1 [Example 9-17, tent-butyl 4-{4-carbamoyl-3-[(2-methylpyridin-4-yl)amino]-1H-pyrazol-1-yl}-4-(cyanomethyl)piperidine-1-carboxylate]	15	133
CC(C)(C)OC(=O)N1CCC(CC#N)(n2cc(C(N)=O)c(Nc3ccnc(CO)c3)n2)CC1 [Example 9-18, tert-butyl 4-(4-carbamoyl-3-{[2-(hydroxymethyl)pyridin-4-yl]amino}-1H-pyrazol-1-yl)-4-(cyanomethyl)piperidine-1-carboxylate]	6	101

— patent publication US9328099B2, “Cyanomethylpyrazole carboxamides as janus kinase inhibitors” (Merck Sharp & Dohme Corp., priority 2011, dated 2016)
